Measurements taken from patent US11040981B2, “Pyrrolotriazine compounds and methods of inhibiting TAM kinases” (Syros Pharmaceuticals, Inc., priority 2017, dated 2021).

Key:
MERTK = target: T1, MERTK (Homo sapiens, UniProt Q12866); test: TR-FRET kinase activity assay, MERTK; format: biochemical; conditions: for IC50: TR-FRET activity assay, ATP at Km, 60 minutes, read-out: Mer IC50
T1 sequence (Q12866 21-999): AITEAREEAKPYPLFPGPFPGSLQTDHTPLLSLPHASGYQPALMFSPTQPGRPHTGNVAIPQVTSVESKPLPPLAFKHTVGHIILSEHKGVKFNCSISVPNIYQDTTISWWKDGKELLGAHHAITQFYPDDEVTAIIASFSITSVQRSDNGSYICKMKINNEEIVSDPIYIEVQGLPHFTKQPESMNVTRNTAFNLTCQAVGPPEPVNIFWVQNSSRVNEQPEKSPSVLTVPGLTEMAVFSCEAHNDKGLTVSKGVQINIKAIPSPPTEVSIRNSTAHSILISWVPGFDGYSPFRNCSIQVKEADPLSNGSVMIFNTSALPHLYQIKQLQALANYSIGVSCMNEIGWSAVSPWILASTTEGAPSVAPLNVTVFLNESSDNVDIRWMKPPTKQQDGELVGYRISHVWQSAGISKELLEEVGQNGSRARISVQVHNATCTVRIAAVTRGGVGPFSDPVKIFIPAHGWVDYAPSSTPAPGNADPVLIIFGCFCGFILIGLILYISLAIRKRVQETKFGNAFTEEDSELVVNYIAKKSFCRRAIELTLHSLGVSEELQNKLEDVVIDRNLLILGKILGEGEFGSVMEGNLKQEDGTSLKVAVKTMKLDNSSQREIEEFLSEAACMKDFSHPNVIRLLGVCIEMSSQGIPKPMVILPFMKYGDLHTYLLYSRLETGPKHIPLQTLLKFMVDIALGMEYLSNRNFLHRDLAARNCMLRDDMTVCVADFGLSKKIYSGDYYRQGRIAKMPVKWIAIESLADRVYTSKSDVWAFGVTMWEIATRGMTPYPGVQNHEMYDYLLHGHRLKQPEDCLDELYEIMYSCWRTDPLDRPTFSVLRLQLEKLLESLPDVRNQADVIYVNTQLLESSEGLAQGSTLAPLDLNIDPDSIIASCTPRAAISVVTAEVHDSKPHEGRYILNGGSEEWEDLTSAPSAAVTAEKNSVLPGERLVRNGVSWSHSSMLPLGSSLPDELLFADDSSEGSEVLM
In short: (§1)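 IC50 reflects the drop in TR-FRET between Eu anti-phosphotyrosine antibody and labelled peptide after a 60-minute room-temperature reaction. Buffer was 50 mM HEPES pH 7.5 with 10 mM MgCl2, 1 mM EGTA, 0.01% Brij 35 and 1 mM DTT, with ATP at Km per enzyme and EDTA quench.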

TYRO3 = target: T2, TYRO3 (Homo sapiens, UniProt Q06418); test: TR-FRET kinase activity assay, TYRO3; format: biochemical; conditions: ATP at Km, 60 minutes
T2 sequence (Q06418 41-890): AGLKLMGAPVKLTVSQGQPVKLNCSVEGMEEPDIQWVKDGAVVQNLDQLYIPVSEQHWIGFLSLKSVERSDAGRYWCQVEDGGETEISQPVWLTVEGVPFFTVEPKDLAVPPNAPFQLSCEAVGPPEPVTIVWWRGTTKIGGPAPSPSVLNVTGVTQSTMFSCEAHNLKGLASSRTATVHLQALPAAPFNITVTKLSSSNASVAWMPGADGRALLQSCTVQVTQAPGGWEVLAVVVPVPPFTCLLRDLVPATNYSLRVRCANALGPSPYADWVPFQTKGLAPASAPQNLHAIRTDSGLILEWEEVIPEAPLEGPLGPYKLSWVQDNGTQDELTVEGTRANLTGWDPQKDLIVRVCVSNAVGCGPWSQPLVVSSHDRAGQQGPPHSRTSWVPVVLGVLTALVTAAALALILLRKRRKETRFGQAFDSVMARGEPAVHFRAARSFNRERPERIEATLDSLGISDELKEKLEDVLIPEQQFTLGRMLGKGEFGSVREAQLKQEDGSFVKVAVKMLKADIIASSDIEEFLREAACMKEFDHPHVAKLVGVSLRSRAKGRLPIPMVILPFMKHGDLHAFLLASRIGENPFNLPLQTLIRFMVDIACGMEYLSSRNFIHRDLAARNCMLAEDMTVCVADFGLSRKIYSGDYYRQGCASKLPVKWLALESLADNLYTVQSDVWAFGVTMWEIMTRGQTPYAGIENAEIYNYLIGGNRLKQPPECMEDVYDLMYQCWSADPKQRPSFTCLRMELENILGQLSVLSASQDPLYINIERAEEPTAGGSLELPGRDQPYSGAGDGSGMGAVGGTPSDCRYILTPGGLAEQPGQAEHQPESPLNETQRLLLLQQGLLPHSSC
In short: as §1

[1] = ratio of Mer to FLT3: FLT3 IC50/Mer IC50
[2] = ratio calculated as FLT3 IC50/Mer IC50

Row | Compound | IC50 (MERTK) [nM] | FLT3/Mer ratio (FLT3 IC50/Mer IC50) (MERTK; [1]) | IC50 (TYRO3) [nM] | FLT3/Mer ratio (FLT3 IC50/Mer IC50) (MERTK; [2])
1 | COC[C@H](C)Nc1ncc2c(-c3cnn(CC4CCOCC4)c3)cc([C@H]3CC[C@H](O)CC3)n2n1 [Compound 392] | ≤ 100 | +++ (“+++” represents a ratio of >100) | ≤ 100 | –
2 | COCC(C)Nc1ncc2c(C3CCCN(C(C)=O)C3)cc(C3CCC(O)CC3)n2n1 (stereo not drawn) [Compound 371] | ≤ 100 | +++ (“+++” represents a ratio of >100) | 100 to 1000 | –
3 | CC(=O)N1CCN(Cc2ccc(-c3cc([C@H]4CC[C@H](O)CC4)n4nc(N[C@@H](C)COC(F)F)ncc34)cc2)CC1 [Compound 413] | ≤ 100 | – | ≤ 100 | ++ (“++” represents a ratio of between 10 and 100)
4 | CCC(C)Nc1ncc2c(C)cc(C3CCC(O)CC3)n2n1 (stereo not drawn) [Compound 123] | ≤ 100 | +++ (“+++” represents a ratio of >100) | 100 to 1000 | –
5 | CCCCC[C@H](C)Nc1ncc2c([C@H]3CC[C@@H](C(=O)O)CC3)cc([C@H]3CC[C@H](O)CC3)n2n1 [Compound 125, (cis)-4-(2-((S)-heptan-2-ylamino)-7-((trans)-4-hydroxycyclohexyl)pyrrolo[2,1-f][1,2,4]triazin-5-yl)cyclohexanecarboxylic acid] | ≤ 100 | ++ (“++” represents a ratio of between 10 and 100) | 100 to 1000 | –
6 | COC[C@H](C)Nc1ncc2c(-c3cnn([C@H]4CCNC4=O)c3)cc([C@H]3CC[C@H](O)CC3)n2n1 [Compound 348] | ≤ 100 | +++ (“+++” represents a ratio of >100) | ≤ 100 | –
7 | COCC(C)Nc1ncc2c(C3CCN(c4ccnc(C)n4)C3)cc(C3CCC(O)CC3)n2n1 (stereo not drawn) [Compound 374] | ≤ 100 | +++ (“+++” represents a ratio of >100) | ≤ 100 | –
8 | COC[C@H](C)Nc1ncc2c(-c3ccnc(C)c3)cc([C@H]3CC[C@@](C)(O)CC3)n2n1 [Compound 381] | ≤ 100 | +++ (“+++” represents a ratio of >100) | ≤ 100 | –
9 | CC1(Nc2ncc3c(-c4cnn(C5COC5)c4)cc(C4CCC(O)CC4)n3n2)COC1 (stereo not drawn) [Compound 399] | ≤ 100 | – | ≤ 100 | +++ (“+++” represents a ratio of >100)
10 | CCCCC[C@H](C)Nc1ncc2c(C3=CCC(C(=O)O)CC3)cc([C@H]3CC[C@H](O)CC3)n2n1 (stereo partly drawn) [Compound 122, 4-(2-((S)-heptan-2-ylamino)-7-((trans)-4-hydroxycyclohexyl)pyrrolo[2,1-f][1,2,4]triazin-5-yl)cyclohex-3-enecarboxylic acid] | ≤ 100 | +++ (“+++” represents a ratio of >100) | ≤ 100 | –
11 | CC(COC(F)F)Nc1ncc2c(-c3cnn(C(C)(C)C(=O)N4CCOCC4)c3)cc(C3CCC(O)CC3)n2n1 (stereo not drawn) [Compound 393] | ≤ 100 | +++ (“+++” represents a ratio of >100) | ≤ 100 | –
12 | C[C@@H](CC(F)F)Nc1ncc2c(-c3cnn(C4COC4)c3)cc([C@H]3CC[C@H](O)CC3)n2n1 [Compound 351] | ≤ 100 | ++ (“++” represents a ratio of between 10 and 100) | ≤ 100 | –
13 | COC[C@H](C)Nc1ncc2c(-c3cnn(C4(C(=O)N5CCOCC5)CC4)c3)cc([C@H]3CC[C@H](O)CC3)n2n1 [Compound 414] | ≤ 100 | – | ≤ 100 | +++ (“+++” represents a ratio of >100)
14 | COCC(C)Nc1ncc2c(-c3cnn(C(C)(C)C(=O)N4CCOC(C)(C)C4)c3)cc(C3CCC(O)CC3)n2n1 (stereo not drawn) [Compound 366] | ≤ 100 | +++ (“+++” represents a ratio of >100) | ≤ 100 | –
15 | COC[C@H](C)Nc1ncc2c(-c3cnn([C@H]4CCN(C(C)=O)C4)c3)cc([C@H]3CC[C@H](O)CC3)n2n1 [Compound 397] | ≤ 100 | – | ≤ 100 | +++ (“+++” represents a ratio of >100)
16 | OC1CCC(c2cc(-c3ccnc(N4CCOCC4)c3)c3cnc(NC4CCOC4)nn23)CC1 (stereo not drawn) [Compound 356] | ≤ 100 | ++ (“++” represents a ratio of between 10 and 100) | ≤ 100 | –
17 | CC(=O)N1CCN(Cc2ccc(-c3cc(C4CCC(O)CC4)n4nc(NC(C)CC(F)(F)F)ncc34)cc2)CC1 (stereo not drawn) [Compound 370] | ≤ 100 | + (“+” represents a ratio of >2.0 and <10) | ≤ 100 | –
18 | C[C@@H](CC(F)(F)F)Nc1ncc2c(C3=CCN(C(=O)OC(C)(C)C)CC3)cc([C@H]3CC[C@H](O)CC3)n2n1 [Compound 412] | ≤ 100 | – | ≤ 100 | +++ (“+++” represents a ratio of >100)
19 | COC[C@H](C)Nc1ncc2c(-c3ccnc(N4CCOCC4)c3)cc([C@H]3CC[C@H](O)CC3)n2n1 [Compound 355] | ≤ 100 | + (“+” represents a ratio of >2.0 and <10) | ≤ 100 | –
20 | COCC(C)Nc1ncc2c(-c3cnn(CC4CCCO4)c3)cc(C3CCC(O)CC3)n2n1 (stereo not drawn) [Compound 379] | ≤ 100 | +++ (“+++” represents a ratio of >100) | ≤ 100 | –
21 | O[C@H]1CC[C@H](c2cc(-c3ccnc(N4CCOCC4)c3)c3cnc(N[C@H]4CCOC4)nn32)CC1 [Compound 362] | ≤ 100 | ++ (“++” represents a ratio of between 10 and 100) | ≤ 100 | –
22 | COC[C@H](C)Nc1ncc2c(-c3ccc(CN4CCN(C)CC4)cc3)cc([C@H]3CC[C@H](O)CC3)n2n1 (single isomer, unassigned) [Compound 124] | ≤ 100 | ++ (“++” represents a ratio of between 10 and 100) | ≤ 100 | –
23 | CNc1cc(-c2cc([C@H]3CC[C@H](O)CC3)n3nc(N[C@@H](C)COC)ncc23)ccn1 [Compound 354] | ≤ 100 | +++ (“+++” represents a ratio of >100) | ≤ 100 | –
24 | COC[C@H](C)Nc1ncc2c(-c3cnn(C[C@@H]4CCC(=O)N4)c3)cc([C@H]3CC[C@H](O)CC3)n2n1 [Compound 368] | ≤ 100 | +++ (“+++” represents a ratio of >100) | ≤ 100 | –
25 | COCC(C)Nc1ncc2c(C3CCN(c4ccnc(C)n4)C3)cc(C3CCC(O)CC3)n2n1 (stereo not drawn) [Compound 373] | ≤ 100 | +++ (“+++” represents a ratio of >100) | ≤ 100 | –
